According to the NIST ThermoML archive (doi:10.1021/acs.jced.5b00209):

Conditions: 101.33 kPa, Liquid; for viscosity: Capillary tube (Ostwald / Ubbelohde) method; for mass density: Pycnometric method

C[S+](C)[O-] [dimethyl sulfoxide]
Conditions	mass density [kg/m3]	viscosity [mPa·s]
298.15 K	1096.8	2.01
303.15 K	1091.4	1.82
308.15 K	1086.1	1.65
313.15 K	1081.2	1.54
318.15 K	1075.3	1.37
